# Measurements taken from patent US7883785B2, “Rhodium and iridium complexes” (Merck Patent GmbH, priority 2002, dated 2011).
# Experiment: Solubilities of various complexes in toluene at 20° C.
# Format: physicochemical
# Details: table title: Solubilities of various complexes
row,Solubility in toluene at 20° C. [mg/mL],Structure (SMILES)
1,6.3,"c1ccc(-c2ccc3[c](c2)[Ir-3]24([c]5cc(-c6ccccc6)ccc5-c5cccc[n+]52)([c]2cc(-c5ccccc5)ccc2-c2cccc[n+]24)[n+]2ccccc2-3)cc1 [Compound 1, fac-Tris[2-(2-pyridinyl-κN)(5-(phenyl)phenyl)-κC]iridium(III)]"
2,25,"Cc1ccccc1-c1ccc2[c](c1)[Ir-3]13([c]4cc(-c5ccccc5C)ccc4-c4cccc[n+]41)([c]1cc(-c4ccccc4C)ccc1-c1cccc[n+]13)[n+]1ccccc1-2 [Compound 2, fac-tris[2-(2-pyridinyl-κN)(5-(o-tolyl)phenyl)-κC]iridium(III)]"
3,32,"Cc1ccc(C)c(-c2ccc3[c](c2)[Ir-3]24([c]5cc(-c6cc(C)ccc6C)ccc5-c5cccc[n+]52)([c]2cc(-c5cc(C)ccc5C)ccc2-c2cccc[n+]24)[n+]2ccccc2-3)c1 [Compound 7, fac-Tris[2-(2-pyridinyl-κN)(5-(2,5-dimethylphenyl)phenyl)-κC]-iridium(III)]"
4,92,"CC(C)COc1ccc(-c2ccc3[c](c2)[Ir-3]24([c]5cc(-c6ccc(OCC(C)C)c(OCC(C)C)c6)ccc5-c5cccc[n+]52)([c]2cc(-c5ccc(OCC(C)C)c(OCC(C)C)c5)ccc2-c2cccc[n+]24)[n+]2ccccc2-3)cc1OCC(C)C [Compound 8, fac-Tris[2-(2-pyridinyl-κN)(5-(3,4-bis(2-methylpropoxy)phenyl)phenyl)-κC]iridium(III)]"
